Measurements published in PMC8437281 (PLoS ONE, 2021).
Several values for one entry are separate records, joined by “and”; a condition that tells them apart may be missing. Identical values can stand only once. Like-named read-outs stand apart in the source and are kept apart here. Where no end group is shown, it is not given here.

How the values were obtained:
[1] = system: C. difficile 630; test: microbe, parasite or virus in culture; conditions: Clostridioides difficile, 630, 24 h
[2] = system: C. difficile 630; conditions: lowest concentration killing ≥99.9%, after 24 h incubation plated on BHI agar, 37°C, anaerobic, triplicate
[3] = system: C. difficile 630; conditions: C. difficile 630, BHI broth, 24 h, 37°C, anaerobic, OD 600 nm; triplicate
[4] = system: Caco-2 cells

Compound | MIC [1] | Minimum bactericidal concentration (MBC) [2] | MIC [3] | Reduction of viability of Caco-2 cells ([4]; Caco-2) | Viability of Caco-2 cells ([4]; Caco-2, 33.94 µM)
CN[C@H](CC(C)C)C(=O)N[C@H]1C(=O)N[C@@H](CC(N)=O)C(=O)N[C@H]2C(=O)N[C@H]3C(=O)N[C@H](C(=O)N[C@H](C(=O)O)c4cc(O)cc(O)c4-c4cc3ccc4O)[C@H](O)c3ccc(c(Cl)c3)Oc3cc2cc(c3O[C@@H]2O[C@H](CO)[C@@H](O)[C@H](O)[C@H]2O[C@H]2C[C@](C)(N)[C@H](O)[C@H](C)O2)Oc2ccc(cc2Cl)[C@H]1O [Vancomycin] | 0.488 µg/mL and 0.34 µM |  |  |  | 
KWKLFKKIGAVLKVL-NH2 [CM] |  | 2.21 µM | 2.21 µM |  | 
KWKLFKKIGAVLKVLA-NH2 [CM-A] |  | 4.24 µM | 1.06 µM | 11% | 40%
